Biological target: thrombin (Homo sapiens, UniProt P00734)
Assay: standard in vitro assays of thrombin inhibitory activity and selectivity
Type: biochemical
Conditions: standard in vitro assays designed to measure inhibitory activity and selectivity toward thrombin versus other proteases

Substance: BnSO2-7Lac—G—R(.TFA)(CO))—Gly—OEt [16-5]
- thrombin inhibitory activity: thrombin inhibitory activity

— patent US6376649B1, “Methods for the synthesis of α- hydroxy-β-amino acid and amide derivatives” (Corvas International, Inc., priority 1998, dated 2002)
